Patent publication US20140315889A1, “HYDROXAMATE DERIVATIVES FOR HDAC INHIBITOR, AND THE PHARMACEUTICAL COMPOSITION COMPRISING THEREOF” (CHONG KUN DANG PHARMACEUTICAL CORP., priority 2011, published 2014)

Legend:
Human recombinant HDAC1 = molecular target: T1, Human recombinant HDAC1 (Homo sapiens, UniProt Q13547); experiment: HDAC enzyme activity test, HDAC1; type: biochemical; conditions: Table 12; read-out: Inhibition ability (IC50) HDAC1
T1 construct: purchased Enzo Life Science Co. (named for the kit; assigned to the enzyme from the BML- catalogue prefix) BML-SE456
Experimental: (§1) Then, 0.3 μg of enzyme and 10 μM of substrate per well were added, reacted at 30° C. for 60 minutes. Thereto, Fluor de Lys® Developer II (BML-KI176) was added and reacted for 30 minutes. […] From the data, the respective IC50 were calculated by GraphPad Prism 4.0 program.

human recombinant HDAC6 = molecular target: T2, human recombinant HDAC6 (Homo sapiens, UniProt Q9UBN7); experiment: HDAC enzyme activity test, HDAC6; type: biochemical; conditions: for Selectivity for HDAC6, HD1/HD6 / IC50: Table 12; for Selectivity for HDAC6, HD1/HD6: ratio HDAC1 IC50 / HDAC6 IC50; for IC50: read-out: Inhibition ability (IC50) HDAC6
T2 construct: purchased Calibiochem Co. (so in the source) 382180
T2 sequence (Q9UBN7 1-1215): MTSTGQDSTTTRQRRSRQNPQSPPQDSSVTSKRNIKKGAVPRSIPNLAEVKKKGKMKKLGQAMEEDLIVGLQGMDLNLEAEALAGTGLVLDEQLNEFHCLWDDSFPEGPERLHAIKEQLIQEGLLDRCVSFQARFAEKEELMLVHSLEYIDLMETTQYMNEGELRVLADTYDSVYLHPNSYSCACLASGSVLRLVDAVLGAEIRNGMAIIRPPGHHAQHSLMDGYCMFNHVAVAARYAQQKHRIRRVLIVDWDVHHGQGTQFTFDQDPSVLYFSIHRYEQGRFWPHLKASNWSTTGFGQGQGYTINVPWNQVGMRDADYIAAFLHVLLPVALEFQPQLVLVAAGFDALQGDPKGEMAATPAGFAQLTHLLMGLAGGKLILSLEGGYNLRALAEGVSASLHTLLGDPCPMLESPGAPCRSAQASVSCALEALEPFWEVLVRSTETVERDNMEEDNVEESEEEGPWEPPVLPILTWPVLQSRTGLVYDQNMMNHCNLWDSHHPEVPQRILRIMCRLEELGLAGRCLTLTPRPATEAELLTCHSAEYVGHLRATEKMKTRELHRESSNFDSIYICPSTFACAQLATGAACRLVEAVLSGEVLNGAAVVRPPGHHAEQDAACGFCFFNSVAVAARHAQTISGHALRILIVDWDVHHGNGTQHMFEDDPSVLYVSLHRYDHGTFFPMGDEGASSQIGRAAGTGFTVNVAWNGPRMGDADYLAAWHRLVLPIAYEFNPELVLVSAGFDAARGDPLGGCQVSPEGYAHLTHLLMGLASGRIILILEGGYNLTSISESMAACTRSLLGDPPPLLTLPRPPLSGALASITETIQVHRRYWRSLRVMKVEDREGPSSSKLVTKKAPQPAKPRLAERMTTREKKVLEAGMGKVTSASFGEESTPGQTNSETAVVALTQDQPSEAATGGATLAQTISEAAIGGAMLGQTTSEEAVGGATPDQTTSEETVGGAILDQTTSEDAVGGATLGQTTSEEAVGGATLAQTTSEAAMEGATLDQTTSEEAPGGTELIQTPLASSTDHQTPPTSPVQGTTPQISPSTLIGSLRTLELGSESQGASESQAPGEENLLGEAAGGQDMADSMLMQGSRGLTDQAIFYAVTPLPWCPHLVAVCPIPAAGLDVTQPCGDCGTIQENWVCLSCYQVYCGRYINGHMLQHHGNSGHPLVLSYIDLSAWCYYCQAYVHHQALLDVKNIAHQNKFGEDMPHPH
Experimental: as §1

T1 sequence (Q13547 whole entry): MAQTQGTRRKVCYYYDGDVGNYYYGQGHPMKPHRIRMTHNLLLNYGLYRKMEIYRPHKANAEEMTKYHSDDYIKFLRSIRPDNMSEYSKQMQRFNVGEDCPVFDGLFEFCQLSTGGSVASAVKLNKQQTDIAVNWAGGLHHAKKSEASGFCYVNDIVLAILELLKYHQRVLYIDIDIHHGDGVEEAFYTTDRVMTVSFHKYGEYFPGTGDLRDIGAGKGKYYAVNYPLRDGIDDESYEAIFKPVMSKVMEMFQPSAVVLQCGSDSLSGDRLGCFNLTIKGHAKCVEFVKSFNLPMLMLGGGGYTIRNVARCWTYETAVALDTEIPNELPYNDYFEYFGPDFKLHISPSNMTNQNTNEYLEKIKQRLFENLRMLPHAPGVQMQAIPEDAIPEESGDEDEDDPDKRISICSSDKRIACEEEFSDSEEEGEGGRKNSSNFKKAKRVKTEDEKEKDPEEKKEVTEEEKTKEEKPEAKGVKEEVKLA

SMILES	IC50 (Human recombinant HDAC1) [nM]	Selectivity for HDAC6, HD1/HD6 (human recombinant HDAC6)	IC50 (human recombinant HDAC6) [nM]	selectivity for HDAC6 over HDAC1 (human recombinant HDAC6; from the data of Table 12)
Cc1c2c(n(CCCCCC(=O)NO)c1C)CC(C)(C)CC2=O [Compound 350, N-hydroxy-6-(2,3,6,6-tetramethyl-4-oxo-4,5,6,7-tetrahydro-1H-indol-1-yl)hexanamide]	1000	9.8	102	
Cc1nccn1CC1CCc2c(c3cc(F)ccc3n2Cc2ccc(C(=O)NO)cc2)C1=O (stereo not shown) [Compound 158, 4-((6-fluoro-3-((2-methyl-1H-imidazol-1-yl)methyl)-4-oxo-1,2,3,4-tetrahydrocarbazol-9-yl)methyl)-N-hydroxybenzamide]	5140	602.7	8.52	
CC1(C)Cc2c(c3cc(F)ccc3n2Cc2ccc(C(=O)NO)cc2)C(=O)C1CN1CCOCC1 (stereo not shown) [Compound 207, 4-((6-fluoro-2,2-dimethyl-3-(morpholinomethyl)-4-oxo-1,2,3,4-tetrahydrocarbazol-9-yl)methyl)-N-hydroxybenzamide]	1820	41.5	43.9	
CC(C)(C)OC(=O)N1CCN(CC2CCc3c(c4cc(F)ccc4n3CCCCCC(=O)NO)C2=O)CC1 (stereo not shown) [Compound 324, tert-butyl 4-((6-fluoro-9-(6-(hydroxyamino)-6-oxohexyl)-4-oxo-2,3,4,9-tetrahydro-1H-carbazol-3-yl)methyl)piperazine-1-carboxylate]	11600	113.2	103	
O=C(NO)c1ccc(Cn2c3c(c4cc(F)ccc42)C(=O)N(CCN2CCOCC2)CC3)cc1 [Compound 266]	2910	2851	1.02	
O=C(NO)c1ccc(Cn2c3c(c4cc(F)ccc42)C(=O)N(CCN2CCC(CO)CC2)CC3)cc1 [Compound 286, 4-((8-fluoro-2-(2-(4-(hydroxymethyl)piperidin-1-yl)ethyl)-1-oxo-1,2,3,4-tetrahydropyrido[4,3-b]indol-5-yl)methyl)-N-hydroxybenzamide]	10600	607	17.4	
O=C(NO)c1ccc(Cn2c3ccccc3c3c(=O)[nH]cnc32)cc1 [Compound 179, N-hydroxy-4-((4-oxo-3,4-dihydropyrimido[4,5-b]indol-9-yl)methyl)benzamide]	154	43.693	3.52	
CC(C)N1CCN(CC2CCc3c(c4ccccc4n3Cc3ccc(C(=O)NO)cc3)C2=O)CC1 (stereo not shown) [Compound 113, N-hydroxy-4-((3-((4-isopropylpiperazin-1-yl)methyl)-4-oxo-1,2,3,4-tetrahydrocarbazol-9-yl)methyl)benzamide]	2440	287.1	8.5	
CC(C)(C)OC(=O)N1CCN(CC2CCc3c(c4cc(F)ccc4n3Cc3ccc(C(=O)NO)cc3)C2=O)CC1 (stereo not shown) [Compound 144, tert-butyl 4-((6-fluoro-9-(4-(hydroxycarbamoyl)benzyl)-4-oxo-2,3,4,9-tetrahydro-1H-carbazol-3-yl)methyl)piperazin-1-carboxylate]	8410	310.9	27.1	
O=C(NO)c1ccc(Cn2c3c(c4cc(F)ccc42)C(=O)N(CCN2CCC[C@@H]2CO)CC3)cc1 [Compound 289, (R)-4-((8-fluoro-2-(2-(2-(hydroxymethyl)pyrrolidin-1-yl)ethyl)-1-oxo-1,2,3,4-tetrahydropyrido[4,3-b]indol-5-yl)methyl)-N-hydroxybenzamide]	7980	691.2	11.5	
CC1(C)CC(=O)c2c(n(Cc3ccc(C(=O)NO)cc3)c3cc(F)c(F)cc23)C1 [Compound 71, 4-((6,7-difluoro-2,2-dimethyl-4-oxo-1,2,3,4-tetrahydrocarbazol-9-yl)methyl)-N-hydroxybenzamide]	4990	37	134	
CCCCN1CCN(CC2CCc3c(c4cc(F)ccc4n3CCCCCC(=O)NO)C2=O)CC1 (stereo not shown) [Compound 326, 6-(3-((4-butylpiperazin-1-yl)methyl)-6-fluoro-4-oxo-1,2,3,4-tetrahydrocarbazol-9-yl)-N-hydroxyhexanamide]	10100	103.3	97.6	
CCN1CCN(CC2CCc3c(c4cc(F)ccc4n3Cc3ccc(C(=O)NO)cc3)C2=O)CC1 (stereo not shown) [Compound 189, 4-((3-((4-ethylpiperazin-1-yl)methyl)-6-fluoro-4-oxo-1,2,3,4-tetrahydrocarbazol-9-yl)methyl)-N-hydroxybenzamide]	2230	193.5	11.5	
Cc1c2c(n(Cc3ccc(C(=O)NO)cc3)c1C)CC(C)(C)CC2=O [Compound 236, N-hydroxy-4-((2,3,6,6-tetramethyl-4-oxo-4,5,6,7-tetrahydro-1H-indol-1-yl)methyl)benzamide]	5110	479.4	10.7	
CC1(C)CC(=O)c2c(n(CCCCCCC(=O)NO)c3ccc(F)cc23)C1 [Compound 56, 7-(6-fluoro-2,2-dimethyl-4-oxo-1,2,3,4-tetrahydrocarbazol-9-yl)-N-hydroxyheptanamide]	242	58.5	4.13	
CC1(C)CC(=O)c2c(n(CCCCCC(=O)NO)c3cc(F)ccc23)C1 [Compound 76, 6-(7-fluoro-2,2-dimethyl-4-oxo-1,2,3,4-tetrahydrocarbazol-9-yl)-N-hydroxyhexanamide]	5230	30.7	171	
O=C(CCCCCn1c2c(c3ccccc31)C(=O)C(CN1CCOCC1)CC2)NO (stereo not shown) [Compound 193, N-hydroxy-6-(3-(morpholinomethyl)-4-oxo-1,2,3,4-tetrahydrocarbazol-9-yl)hexanamide]	3500	464.3	7.5	
CC1(C)CC(=O)c2c(n(Cc3ccc(C(=O)NO)cc3)c3cc(Br)ccc23)C1 [Compound 54, 4-((7-bromo-2,2-dimethyl-4-oxo-1,2,3,4-tetrahydrocarbazol-9-yl)methyl)-N-hydroxybenzamide]	1470	24.7	59.5	
Cc1cn(Cc2ccc(C(=O)NO)cc2)c2c1C(=O)N(CCN1CCOCC1)CC2 [Compound 250, N-hydroxy-4-((3-methyl-5-(2-morpholinoethyl)-4-oxo-4,5,6,7-tetrahydropyrrolo[3,2-c]pyridin-1-yl)methyl)benzamide]	2720	20.5	133	
O=C(NO)c1ccc(Cn2c3c(c4cc(F)ccc42)C(=O)N(CCN2CCC[C@H]2CO)CC3)cc1 [Compound 290, (S)-4-((8-fluoro-2-(2-(2-(hydroxymethyl)pyrrolidin-1-yl)ethyl)-1-oxo-1,2,3,4-tetrahydropyrido[4,3-b]indol-5-yl)methyl)-N-hydroxybenzamide]	6410	2925.1	2.19	more than 2,900 times
O=C(NO)c1ccc(Cn2c3c(c4ccccc42)C(=O)C(CN2CCN(C(=O)C4CC4)CC2)CC3)cc1 (stereo not shown) [Compound 156, 4-((3-((4-(cyclopropancarbonyl)piperazin-1-yl)methyl)-4-oxo-1,2,3,4-tetrahydrocarbazol-9-yl)methyl)-N-hydroxybenzamide]	6400	424.8	15.1	
